Test results from patent publication US7008636B2, “2,3,5-substituted biphenyls useful in the treatment of insulin resistance and hyperglycemia” (Wyeth, priority 1998, dated 2006).

Assays:
[1] = biological target: T1, recombinant, human protein tyrosine phosphatase (PTP) 1B (hPTP1B) (Homo sapiens, UniProt P18031); experiment: Inhibition of tri-phosphorylated insulin receptor dodecaphosphopeptide dephosphorylation by hPTP1B; assay type: biochemical; settings: 50 μM IR triphosphopeptide substrate, 5 min preincubation and 5 min reaction at 37° C., malachite green-ammonium molybdate phosphate detection
T1 construct: made in house
T1 sequence (P18031 1-435): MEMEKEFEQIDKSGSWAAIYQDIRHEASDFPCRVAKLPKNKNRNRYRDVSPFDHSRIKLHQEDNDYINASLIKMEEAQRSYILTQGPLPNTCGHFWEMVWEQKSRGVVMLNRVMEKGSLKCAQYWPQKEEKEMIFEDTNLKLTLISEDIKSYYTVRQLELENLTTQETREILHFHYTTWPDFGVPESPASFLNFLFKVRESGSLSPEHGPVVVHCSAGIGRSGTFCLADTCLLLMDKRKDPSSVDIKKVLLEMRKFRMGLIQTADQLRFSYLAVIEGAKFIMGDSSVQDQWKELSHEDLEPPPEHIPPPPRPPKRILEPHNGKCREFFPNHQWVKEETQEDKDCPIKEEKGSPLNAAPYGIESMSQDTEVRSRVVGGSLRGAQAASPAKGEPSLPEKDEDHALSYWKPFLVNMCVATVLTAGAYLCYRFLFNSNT

SMILES | IC50 [1] [nM] | melting point
CCCCCCCCOc1cc(-c2cccc(NC(C)=O)c2)c(OCC(=O)O)c(-c2cccc(NC(C)=O)c2)c1 [Example 47, (3,3″-Bis-acetylamino-5′-octyloxy-[1,1′;3′,1″]terphenyl-2′-yloxy)acetic acid] | 300 | > 100 °C (dec.)
CCCCCCCCOc1cc(-c2cccc(C(F)(F)F)c2)c(OCC(=O)O)c(-c2cccc(C(F)(F)F)c2)c1 [Example 48, (5′-Octyloxy-3,3″-bis-trifluoromethyl-[1,1′;3′,1″]terphenyl-2′-yloxy)acetic acid] | 145 | 75 to 77 °C
CCCCCCCCOc1cc(-c2cccc([N+](=O)[O-])c2)c(OCC(=O)O)c(-c2cccc([N+](=O)[O-])c2)c1 [Example 49, (3,3″-Dinitro-5′-octyloxy-[1,1′;3′,1″]terphenyl-2′-yloxy)acetic acid] | 400 | 129 to 132 °C
O=C(O)COc1c(-c2cccc(Cl)c2)cc(C(=O)NCCCCCCc2ccccc2)cc1-c1cccc(Cl)c1 [Example 80, [3,3″-Dichloro-5′-(6-phenyl-hexylcarbamoyl)-[1,1′;3′,1″]terphenyl-2′-yloxy]acetic acid] | 600 | 178 to 181 °C
COc1ccc(-c2cc(C(=O)N(C)CCCCCCCCc3ccccc3)cc(-c3cccc(C(F)(F)F)c3)c2OCC(=O)O)cc1 [Example 81, {4″-Methoxy-5′-[methyl-(8-phenyl-octyl)-carbamoyl]-3-trifluoromethyl-[1,1′;3′1″]-terphenyl-2′-yloxy}acetic acid] | 330 | > 39 °C (dec.)
CN(CCCCCCCCc1ccccc1)C(=O)c1cc(-c2cccc(Cl)c2)c(OCC(=O)O)c(-c2cccc(Cl)c2)c1 [Example 82, {3,3″-Dichloro-5′-[methyl-(8-phenyl-octyl)-carbamoyl]-[1,1′;3′1″]terphenyl-2′-yloxy}acetic acid] | 179 | > 44 °C (dec.)
O=C(O)COc1c(-c2cccc(F)c2)cc(C(=O)NCCCCCCCCc2ccccc2)cc1-c1cccc(F)c1 [Example 83, [3,3″-Difluoro-5′-(8-phenyl-octylcarbamoyl)-[1,1′;3′,1″]terphenyl-2′-yloxy]acetic acid] | 536 | > 58 °C (dec.)
CN(CCCCCCCCc1ccccc1)C(=O)c1cc(-c2cccc(F)c2)c(OCC(=O)O)c(-c2cccc(F)c2)c1 [Example 84] | 1030 | > 43 °C (dec.)
O=C(O)COc1c(-c2cccc(Cl)c2)cc(C(=O)NCCCCCCCCSc2nc3ccccc3o2)cc1-c1cccc(Cl)c1 [Example 87, {5′-[8-(Benzoxazol-2-ylsulfanyl)-octylcarbamoyl]-3,3″-dichloro-[1,1′;3′1″]-terphenyl-2′-yloxy}acetic acid] | 332 | > 68 °C (dec.)
O=C(O)COc1c(-c2cccc(Cl)c2)cc(C(=O)NCCCCCCCCn2ccc3ccccc32)cc1-c1cccc(Cl)c1 [Example 88, [3,3″-Dichloro-5′-(8-indol-1-yl-octylcarbamoyl)-[1,1′;3′1″]terphenyl-2′-yloxy]acetic acid] | 137 | > 84 °C (dec.)
N#Cc1cccc(OCCCCCCCCNC(=O)c2cc(-c3cccc(Cl)c3)c(OCC(=O)O)c(-c3cccc(Cl)c3)c2)c1 [Example 89, {3,3″-Dichloro-5′-[8-(3-cyano-phenoxy)-octylcarbamoyl]-[1,1′;3′1″]terphenyl-2′-yloxy}acetic acid] | 173 | > 61 °C (dec.)
O=C(O)COc1c(-c2cccc(Cl)c2)cc(C(=O)NCCCCCCCCOCc2ccc(Cl)cc2)cc1-c1cccc(Cl)c1 [Example 90, {3,3″-Dichloro-5′-[8-(4-chloro-benzyloxy)-octylcarbamoyl]-[1,1′;3′1″]terphenyl-2′-yloxy}acetic acid] | 100 | 128 to 131 °C
Cc1cc(OCCCCCCCCNC(=O)c2cc(-c3cccc(Cl)c3)c(OCC(=O)O)c(-c3cccc(Cl)c3)c2)ccc1F [Example 91, {3,3″-Dichloro-5′-[8-(4-fluoro-3-methyl-phenoxy)-octylcarbamoyl]-[1,1′;3′1″]terphenyl-2′-yloxy}acetic acid] | 313 | 138 to 140 °C
O=C(O)COc1c(-c2cccc(Cl)c2)cc(C(=O)NCCCCCCCCn2ccnc2)cc1-c1cccc(Cl)c1 [Example 92, [3,3″-Dichloro-5′-(8-imidazol-1-yl-octylcarbamoyl)-[1,1′;3′1″]terphenyl-2′-yloxy]acetic acid] | 471 | > 109 °C (dec.)
O=C(O)COc1c(-c2cccc(Cl)c2)cc(C(=O)NCCCCCCOC(=O)Nc2ccc(Oc3ccccc3)cc2)cc1-c1cccc(Cl)c1 [Example 95, {3,3″-Dichloro-5′-[6-(4-phenoxy-phenylcarbamoyloxy)-hexylcarbamoyl]-[1,1′;3′1″]terphenyl-2′-yloxy}acetic acid] | 641 | > 75 °C (dec.)
O=C(O)COc1c(-c2cccc(Cl)c2)cc(C(=O)NCCCCCCCCn2ccc3cc(F)ccc32)cc1-c1cccc(Cl)c1 [Example 96, {3,3″-Dichloro-5′-[8-(5-fluoro-indol-1-yl)-octylcarbamoyl]-[1,1′;3′1″]terphenyl-2′-yloxy}acetic acid] | 137 | 141 to 144 °C
COc1ccc2c(ccn2CCCCCCCCNC(=O)c2cc(-c3cccc(Cl)c3)c(OCC(=O)O)c(-c3cccc(Cl)c3)c2)c1 [Example 97, {3,3″-Dichloro-5′-[8-(5-methoxy-indol-1-yl)-octylcarbamoyl]-[1,1′;3′1″]terphenyl-2′-yloxy}acetic acid] | 186 | > 70 °C (dec.)
Cc1ccc2c(c1)cc(C)n2CCCCCCCCNC(=O)c1cc(-c2cccc(Cl)c2)c(OCC(=O)O)c(-c2cccc(Cl)c2)c1 [Example 98, {3,3″-Dichloro-5′-[8-(2,5-dimethyl-indol-1-yl)-octylcarbamoyl]-[1,1′;3′1″]-terphenyl-2′-yloxy}acetic acid] | 132 | > 172 °C (dec.)
COc1ccc2c(c1)cc(C)n2CCCCCCCCNC(=O)c1cc(-c2cccc(Cl)c2)c(OCC(=O)O)c(-c2cccc(Cl)c2)c1 [Example 99, {3,3″-Dichloro-5′-[8-(5-methoxy-2-methyl-indol-1-yl)-octylcarbamoyl]-[1,1′;3′1″]-terphenyl-2′-yloxy}acetic acid] | 267 | > 75 °C (dec.)
O=C(O)COc1c(-c2cccc(Cl)c2)cc(C(=O)NCC2(COCCCCc3ccccc3)CC2)cc1-c1cccc(Cl)c1 [Example 100, (3,3″-Dichloro-5′-{[1-(4-phenyl-butoxymethyl)-cyclopropylmethyl]-carbamoyl}-[1,1′;3′1″]terphenyl-2′-yloxy)acetic acid] | 389 | > 52 °C (dec.)
CC(C)(COc1c(-c2cccc(C(F)(F)F)c2)cc(C(=O)NCCCCCCCc2ccccc2)cc1-c1cccc(C(F)(F)F)c1)C(=O)O [Example 129, 2,2-Dimethyl-3-[5′-(7-phenyl-heptylcarbamoyl)-3,3″-bis-trifluoromethyl-[1,1′:3′,1″]terphenyl-2′-yloxy]-propionic acid] | 162 | 130 to 132 °C
Cc1cccc(-c2cc(C(=O)NCCCCCCCc3ccccc3)cc(-c3cccc(C)c3)c2OCC(=O)O)c1 [Example 145, [3,3″-Dimethyl-5′-(7-phenyl-heptylcarbamoyl)-[1,1′:3′,1″]terphenyl-2′-yloxy]acetic acid] | 1150 | 58 to 62 °C
Cc1cc(C)cc(-c2cc(C(=O)NCCCCCCCc3ccccc3)cc(-c3cc(C)cc(C)c3)c2OCCCC(=O)O)c1 [Example 148, 4-[3,5,3″,5″-Tetramethyl-5′-(7-phenyl-heptylcarbamoyl)-[1,1′:3′,1″]terphenyl-2′-yloxy]-butyric acid] | 249 | 64 to 66 °C
CCCCCCCCCCCCNC(=O)c1cc(Br)c(OCC(=O)O)c(-c2ccccc2F)c1 [Example 156, (3-Bromo-5-dodecylcarbamoyl-2′-fluoro-biphenyl-2-yloxy)acetic acid] | 278 | 128 to 138 °C
COc1ccc(-c2cc(C(=O)NCCCCCCCCc3ccccc3)cc(-c3cccc(C(F)(F)F)c3)c2OCC(=O)O)cc1 [Example 158, [4″-Methoxy-5′-(8-phenyl-octylcarbamoyl)-3-trifluoromethyl-[1,1′;3′,1″]terphenyl-2′-yloxy]acetic acid] | 246 | 139 to 144 °C
CCCCCCCCCCCCNC(=O)c1cc(-c2cc(Cl)cc(Cl)c2)c(OCC(=O)O)c(-c2cc(Cl)cc(Cl)c2)c1 [Example 159, (3,5,3″,5″-Tetrachloro-5′-dodecylcarbamoyl-[1,1′;3′,1″]terphenyl-2′-yloxy)acetic acid] | 44 | 139 to 144 °C
O=C(O)COc1c(-c2cc(Cl)cc(Cl)c2)cc(C(=O)NCCCCCCCCc2ccccc2)cc1-c1cc(Cl)cc(Cl)c1 [Example 160, [3,5,3″,5″-Tetrachloro-5′-(8-phenyl-octylcarbamoyl)-[1,1′;3′,1″]terphenyl-2′-yloxy]acetic acid] | 54 | 139 to 149 °C
O=C(O)COc1c(-c2cc(Cl)cc(Cl)c2)cc(C(=O)NCCCCCCc2ccccc2)cc1-c1cc(Cl)cc(Cl)c1 [Example 161, [3,5,3″,5″-Tetrachloro-5′-(6-phenyl-hexylcarbamoyl)-[1,1′;3′,1″]terphenyl-2′-yloxy]acetic acid] | 33 | 151 to 159 °C
